The test system of this assay is P388 leukemia ip, CD2F1 mice, survival T/C. Briefly: NCI In Vivo Anticancer Drug Screen. Data for tumor model P388 Leukemia (intraperitoneal) in CD2F1 (CDF1) mice. Particulars: endpoint: median survival time, higher = longer survival. In short, it runs like this: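 Mice carrying the transplanted tumor received test compound or vehicle. Survival was recorded in each group, and the value is the treated-group measurement divided by that of the vehicle-treated control group.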

The mark [1] stands for this setting: dose: 25.0 mg/kg/injection, schedule: Q01DX009 (ip), vehicle: saline with Tween-80.
Where [2] appears, read: dose: 50.0 mg/kg/injection, schedule: Q01DX009 (ip), vehicle: saline with Tween-80.
Where [3] appears, read: dose: 100.0 mg/kg/injection, schedule: Q01DX009 (ip), vehicle: saline with Tween-80.
Setting [4] is: dose: 200.0 mg/kg/injection, schedule: Q01DX009 (ip), vehicle: saline with Tween-80.

The structures appear in SMILES notation. Where “and” joins values, the source holds several entries; their conditions need not be identical. Equal values may be shown once. Inconclusive results and toxic doses are left out.

Turning to `COc1cccc2c1C(=O)c1c(O)c3c(c(O)c1C2=O)C[C@@](O)(/C(C)=N/NC(=O)c1ccc(-c2ccccc2)cc1)C[C@@H]3OC1CC(N)C(O)C(C)O1` (stereo partly drawn), the T/C (dose: 0.12 mg/kg/injection, schedule: Q01DX009 (ip), vehicle: water) is 107 % of control; the T/C (dose: 0.5 mg/kg/injection, schedule: Q01DX009 (ip), vehicle: water) was 151 % of control; the T/C (dose: 1.0 mg/kg/injection, schedule: Q01DX009 (ip), vehicle: water) was 157 % of control; the T/C (dose: 2.0 mg/kg/injection, schedule: Q01DX009 (ip), vehicle: water) was 163 % of control and 169 % of control; the T/C (dose: 3.13 mg/kg/injection, schedule: Q01DX009 (ip), vehicle: water) was 192 % of control; the T/C (dose: 4.0 mg/kg/injection, schedule: Q01DX009 (ip), vehicle: water) is 190 % of control. Further, the T/C by setting is: (dose: 6.0 mg/kg/injection, schedule: Q04DX003 (ip), vehicle: water) 106 % of control; (dose: 6.25 mg/kg/injection, schedule: Q01DX001 (ip), vehicle: water) 151 % of control; (dose: 6.25 mg/kg/injection, schedule: Q01DX009 (ip), vehicle: water) 109 % of control; (dose: 8.0 mg/kg/injection, schedule: Q01DX009 (ip), vehicle: water) 98 % of control and 91 % of control; (dose: 12.5 mg/kg/injection, schedule: Q01DX001 (ip), vehicle: water) 163 % of control; (dose: 24.0 mg/kg/injection, schedule: Q04DX003 (ip), vehicle: water) 165 % of control. Also, the T/C reads like this: (dose: 25.0 mg/kg/injection, schedule: Q01DX001 (ip), vehicle: water) 116 % of control; (dose: 96.0 mg/kg/injection, schedule: Q04DX003 (ip), vehicle: water) 98 % of control.

For the molecule `Cc1ccc(OP(=O)(Oc2ccc(C)cc2)Oc2ccc(C)cc2)cc1.Cc1ccc(OP(=O)(Oc2ccc(C)cc2)Oc2ccc(C)cc2)cc1.Cc1ccc(OP(=O)(Oc2ccc(C)cc2)Oc2ccc(C)cc2)cc1.Cc1ccc(OP(=O)(Oc2ccc(C)cc2)Oc2ccc(C)cc2)cc1.[Co+2].[O-][Cl+3]([O-])([O-])O`, the T/C reads like this: (dose: 100.0 mg/kg/injection, schedule: Q01DX001 (ip), vehicle: Klucel (hydroxypropylcellulose) (HPC)) 99 % of control; (dose: 200.0 mg/kg/injection, schedule: Q01DX001 (ip), vehicle: Klucel (hydroxypropylcellulose) (HPC)) 97 % of control; (dose: 400.0 mg/kg/injection, schedule: Q01DX001 (ip), vehicle: Klucel (hydroxypropylcellulose) (HPC)) 97 % of control.

As to `COC(=O)c1nc2c(n(C)/c1=N/C(=O)Nc1ccccc1)CCCC2`, the T/C is 120 % of control under setting [1], 124 % of control under setting [2], 216 % of control under setting [3] and 117 % of control under setting [4].

Consider `OC1CCCSc2ccccc21` (stereo not drawn), for which the T/C reads like this: under setting [1], 100 % of control and 95 % of control; (dose: 50.0 mg/kg/injection, schedule: Q01DX009 (ip), vehicle: saline + alcohol) 99 % of control; under setting [2], 100 % of control and 97 % of control; (dose: 100.0 mg/kg/injection, schedule: Q01DX009 (ip), vehicle: saline + alcohol) 96 % of control; under setting [3], 98 % of control; (dose: 200.0 mg/kg/injection, schedule: Q01DX009 (ip), vehicle: saline + alcohol) 105 % of control. Besides, the T/C is 118 % of control under setting [4] and 103 % of control (dose: 400.0 mg/kg/injection, schedule: Q01DX009 (ip), vehicle: saline + alcohol).

On to `OC1(O)/C=C\CCCCC/C=C\1`, for which the T/C was 100 % of control (dose: 25.0 mg/kg/injection, schedule: Q01DX005 (ip), vehicle: saline with Tween-80); 101 % of control (dose: 50.0 mg/kg/injection, schedule: Q01DX005 (ip), vehicle: saline with Tween-80); 99 % of control and 102 % of control (dose: 100.0 mg/kg/injection, schedule: Q01DX005 (ip), vehicle: saline with Tween-80); 105 % of control (dose: 200.0 mg/kg/injection, schedule: Q01DX005 (ip), vehicle: saline with Tween-80).

The values are drawn from PubChem BioAssay AID330 (DTP/NCI, 2004).
